The values that follow come from article PMC10584170, “Machine learning-based phenotypic imaging to characterise the targetable biology of Plasmodium falciparum male gametocytes for the development of transmission-blocking antimalarials” (PLOS Pathogens, 2023).

The test system of assay [1] is P. falciparum male gametocytes. Kind of assay: P. falciparum Dual Gamete Formation Assay (PfDGFA), male readout (exflagellation). The class given is cell-based, Plasmodium falciparum NF54. As to conditions: for Average inhibition male (%): average of replicates; for % inhibition male (individual replicates) R1: replicate R1; for % inhibition male (individual replicates) R3: replicate R3; for % inhibition male (individual replicates) R4: replicate R4; for Activity: hit = >50% inhibition in male or female readout in at least 3 replicates, 0 = no class assigned. Put shortly:
(§1)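 Day-14 NF54 gametocytes were incubated with compound for 24 h at 37°C under 1% O2/3% CO2/96% N2. Gametogenesis was triggered with ookinete medium (0.1 μM xanthurenic acid) plus Cy3-anti-Pfs25, and exflagellation was imaged by brightfield after cooling to 4°C then 28°C. Females were imaged by Pfs25 fluorescence 24 h later at 28°C.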

Assay [2] deals with P. falciparum female gametocytes. Kind of assay: P. falciparum Dual Gamete Formation Assay (PfDGFA), female readout (Pfs25-positive female gametes). It counts as cell-based, Plasmodium falciparum NF54. As to conditions: for Average inhibition female (%): average of replicates; for % inhibition female (individual replicates) R1: replicate R1; for % inhibition female (individual replicates) R3: replicate R3; for % inhibition female (individual replicates) R4: replicate R4. The essentials: as §1

[3] abbreviates: 2µM, 24h preincubation with gametocytes prior to induction of gametogenesis.
[4] abbreviates: 2µM, 24h preincubation, number of replicates with >50% inhibition in the male readout.
The mark [5] stands for this setting: 2µM, 24h preincubation, number of replicates with >50% inhibition in the female readout.
Setting [6] is: 2µM, 24h preincubation, hits selected on >50% inhibition in the male readout across replicates.
Where [7] appears, read: PfDGFA at 2µM, 24h preincubation.
The mark [8] stands for this setting: 2µM, 24h preincubation, hits selected on >50% inhibition in the female readout across replicates.
The mark [9] stands for this setting: PfDGFA at 2µM, 24h preincubation with gametocytes prior to induction of gametogenesis.

Consider `O=C(/C=C/c1ccc(Cl)c(Cl)c1)N1CCC(CN2CCC(c3c[nH]c4ccncc34)CC2)CC1` [TCMDC-140074], for which, in assay [1] (setting [3]), the “Average inhibition male (%)” value came to 29.9%, the “% inhibition male (individual replicates) R1” value is 24.9%, the “% inhibition male (individual replicates) R3” value is recorded as -2.0% and the “% inhibition male (individual replicates) R4” value was determined as 40.2%. The HitlevelM in assay [1] (setting [4]) worked out at 1. In assay [2] (setting [3]), the “Average inhibition female (%)” value is on record as 19.7%, the “% inhibition female (individual replicates) R1” value was 24.3%, the “% inhibition female (individual replicates) R3” value was found to be 8.2% and the “% inhibition female (individual replicates) R4” value stood at 6.7%. This compound returned a HitlevelF in assay [2] (setting [5]) of 0.

As for `COc1cc(C(=O)NC2CCN(Cc3ccccc3)CC2)ccc1-c1nc2cc(Cl)c(Cl)cc2[nH]1` [TCMDC-140078], in assay [1] (setting [3]), the “Average inhibition male (%)” value was determined as 4.4%, the “% inhibition male (individual replicates) R1” value was found to be 13.3%, the “% inhibition male (individual replicates) R3” value was determined as 2.8% and the “% inhibition male (individual replicates) R4” value is recorded as 2.9%. For the same compound, in assay [1] (setting [6]), the HitlevelM was 0. This compound also registered an Activity in assay [1] (setting [7]) of 0. In assay [2] (setting [3]), the “Average inhibition female (%)” value was determined as 6.4%, the “% inhibition female (individual replicates) R1” value is 17.0%, the “% inhibition female (individual replicates) R3” value was -8.0% and the “% inhibition female (individual replicates) R4” value is reported as 18.5%. The same compound returned a HitlevelF in assay [2] (setting [8]) of 0.

`CN(C)CCCOc1cccc(CCNCc2cccc(Oc3ccc(Cl)cc3)c2)c1.O=C(O)C(F)(F)F` [TCMDC-140091]: in assay [1] (setting [3]), the “Average inhibition male (%)” value came out at 24.7%, the “% inhibition male (individual replicates) R1” value is listed as 7.1%, the “% inhibition male (individual replicates) R3” value came to 12.3% and the “% inhibition male (individual replicates) R4” value amounted to 44.2%. Further, the HitlevelM in assay [1] (setting [6]) is 0. The same compound yielded an Activity in assay [1] (setting [7]) of 0. Moreover, in assay [2] (setting [3]), the “Average inhibition female (%)” value was 6.3%, the “% inhibition female (individual replicates) R1” value is 16.6%, the “% inhibition female (individual replicates) R3” value is on record as -0.66% and the “% inhibition female (individual replicates) R4” value is on record as -7.8%. For the same compound, the HitlevelF in assay [2] (setting [8]) is reported as 0.

With `CC(=O)Nc1ccc2[nH]cc(C3CCN(CC4CCC(NC(=O)/C=C/c5ccccc5Cl)CC4)CC3)c2n1` (stereo not drawn) [TCMDC-140111], in assay [1] (setting [3]), the “Average inhibition male (%)” value was 33.8%, the “% inhibition male (individual replicates) R1” value was 38.4% and the “% inhibition male (individual replicates) R4” value stood at 14.3%. This compound showed a HitlevelM in assay [1] (setting [4]) of 0. In assay [2] (setting [3]), the “Average inhibition female (%)” value amounted to 28.1%, the “% inhibition female (individual replicates) R1” value amounted to 31.7%, the “% inhibition female (individual replicates) R3” value is 20.9% and the “% inhibition female (individual replicates) R4” value came to 26.6%. For the same compound, the HitlevelF in assay [2] (setting [5]) was 0.

With `CC(=O)Nc1ccc2[nH]cc(C3CCN(CC4CCN(C(=O)/C=C/c5ccc(Cl)c(Cl)c5)CC4)CC3)c2n1` [TCMDC-140112], in assay [1] (setting [3]), the “Average inhibition male (%)” value is 36.8%, the “% inhibition male (individual replicates) R1” value worked out at 41.7%, the “% inhibition male (individual replicates) R3” value is given as 26.0% and the “% inhibition male (individual replicates) R4” value was 45.6%. In assay [1] (setting [4]), this compound gave a HitlevelM of 0. Further, in assay [2] (setting [3]), the “Average inhibition female (%)” value was 33.3%, the “% inhibition female (individual replicates) R1” value is listed as 35.7%, the “% inhibition female (individual replicates) R3” value stood at 28.7% and the “% inhibition female (individual replicates) R4” value was found to be 36.0%. The compound further showed a HitlevelF in assay [2] (setting [5]) of 0.

Regarding `CC(=O)Nc1ccc2[nH]cc(C3CCN(CC4CCC(NC(=O)/C=C/c5ccc(Cl)c(Cl)c5)CC4)CC3)c2n1` (stereo not drawn) [TCMDC-140114], in assay [1] (setting [3]), the “Average inhibition male (%)” value amounted to 48.3%, the “% inhibition male (individual replicates) R1” value turned out to be 53.7%, the “% inhibition male (individual replicates) R3” value was determined as 39.7% and the “% inhibition male (individual replicates) R4” value was 57.6%. In assay [1] (setting [4]), this compound yielded a HitlevelM of 2. For the same compound, in assay [2] (setting [3]), the “Average inhibition female (%)” value is given as 33.1%, the “% inhibition female (individual replicates) R1” value is recorded as 26.2%, the “% inhibition female (individual replicates) R3” value amounted to 29.8% and the “% inhibition female (individual replicates) R4” value stood at 41.8%. In assay [2] (setting [5]), this compound yielded a HitlevelF of 0.

As to `Nc1cc2c(C3CCN(CC4CCN(C(=O)/C=C/c5ccc(Cl)c(Cl)c5)CC4)CC3)c[nH]c2cn1` [TCMDC-140133], in assay [1] (setting [3]), the “Average inhibition male (%)” value worked out at 52.8%, the “% inhibition male (individual replicates) R1” value is 50.4%, the “% inhibition male (individual replicates) R3” value amounted to 47.4% and the “% inhibition male (individual replicates) R4” value stood at 52.9%. The same compound came in with a HitlevelM in assay [1] (setting [4]) of 3. Moreover, in assay [2] (setting [3]), the “Average inhibition female (%)” value worked out at 13.5%, the “% inhibition female (individual replicates) R1” value is given as 13.3%, the “% inhibition female (individual replicates) R3” value came to 3.5% and the “% inhibition female (individual replicates) R4” value is 10.0%. Besides, the HitlevelF in assay [2] (setting [5]) is recorded as 0.

In the case of `O=C(/C=C/c1c(Cl)cccc1Cl)NC1CCC(CN2CCC(c3c[nH]c4ccncc34)CC2)CC1` (stereo not drawn) [TCMDC-140220], in assay [1] (setting [3]), the “Average inhibition male (%)” value stood at 43.5%, the “% inhibition male (individual replicates) R1” value is 44.6%, the “% inhibition male (individual replicates) R3” value was found to be 17.7% and the “% inhibition male (individual replicates) R4” value is listed as 42.9%. The HitlevelM in assay [1] (setting [6]) was found to be 1. The Activity in assay [1] (setting [7]) worked out at 0. Further, in assay [2] (setting [3]), the “Average inhibition female (%)” value stood at 10.7%, the “% inhibition female (individual replicates) R1” value is given as 11.8%, the “% inhibition female (individual replicates) R3” value amounted to 11.4% and the “% inhibition female (individual replicates) R4” value is given as 18.8%. In addition, the HitlevelF in assay [2] (setting [8]) stood at 0.

As to `CN(C)CCCOc1ccccc1CN1CC[C@H](NC(=O)c2ccc(Cl)c(Cl)c2)C1.O=C(O)C(F)(F)F` [TCMDC-140310], in assay [1] (setting [3]), the “Average inhibition male (%)” value is recorded as 6.1%, the “% inhibition male (individual replicates) R1” value stood at 4.0% and the “% inhibition male (individual replicates) R4” value amounted to 4.7%. Moreover, the HitlevelM in assay [1] (setting [6]) was 0. Moreover, the Activity in assay [1] (setting [7]) is listed as 0. In assay [2] (setting [3]), the “Average inhibition female (%)” value stood at 10.5%, the “% inhibition female (individual replicates) R1” value worked out at 10.3%, the “% inhibition female (individual replicates) R3” value was found to be 9.3% and the “% inhibition female (individual replicates) R4” value was 14.4%. The same compound yielded a HitlevelF in assay [2] (setting [8]) of 0.

In the case of `Cc1ccc2cc(NC(=O)CCCCCCCON3C(N)=NC(N)=NC34CCCCC4)ccc2n1.O=C(O)C(F)(F)F` [TCMDC-140377], in assay [1] (setting [9]), the “% inhibition male (individual replicates) R1” value is -16.0%, the “% inhibition male (individual replicates) R3” value is -37.7% and the “% inhibition male (individual replicates) R4” value is listed as -32.5%. In addition, the “Average inhibition male (%)” value in assay [1] (setting [7]) is recorded as -24.7%. In addition, in assay [2] (setting [9]), the “% inhibition female (individual replicates) R1” value worked out at 7.6%, the “% inhibition female (individual replicates) R3” value is on record as -9.1% and the “% inhibition female (individual replicates) R4” value is recorded as 0.33%. The “Average inhibition female (%)” value in assay [2] (setting [7]) came out at 0.7%.

For the compound `Cc1cc(CNCCCCCCNCc2ccc(-c3ccccc3)cc2)ccc1O` [TCMDC-140412], in assay [1] (setting [9]), the “% inhibition male (individual replicates) R1” value came out at 6.5% and the “% inhibition male (individual replicates) R4” value is on record as 7.3%. Further, in assay [1] (setting [7]), the “Average inhibition male (%)” value is on record as 9.5%. Also, in assay [2] (setting [9]), the “% inhibition female (individual replicates) R1” value is given as 8.1%, the “% inhibition female (individual replicates) R3” value is given as -7.2% and the “% inhibition female (individual replicates) R4” value worked out at 4.6%. Besides, the “Average inhibition female (%)” value in assay [2] (setting [7]) is recorded as 1.3%.

For `Cc1cc(CNCCCCCCCNCc2ccc(-c3ccccc3)cc2)ccc1O` [TCMDC-140415], in assay [1] (setting [9]), the “% inhibition male (individual replicates) R1” value worked out at 37.4%, the “% inhibition male (individual replicates) R3” value is given as 30.2% and the “% inhibition male (individual replicates) R4” value stood at 70.9%. The “Average inhibition male (%)” value in assay [1] (setting [7]) is on record as 52.6%. Besides, in assay [2] (setting [9]), the “% inhibition female (individual replicates) R1” value is reported as 15.4%, the “% inhibition female (individual replicates) R3” value is -2.4% and the “% inhibition female (individual replicates) R4” value is recorded as -10.0%. Moreover, in assay [2] (setting [7]), the “Average inhibition female (%)” value worked out at 3.6%.

With `NCc1cccc(-c2ccccc2CNC2CCN(Cc3ccccc3)CC2)c1.O=C(O)C(F)(F)F` [TCMDC-140467], in assay [1] (setting [3]), the “Average inhibition male (%)” value is listed as 3.4%, the “% inhibition male (individual replicates) R1” value is listed as -0.12%, the “% inhibition male (individual replicates) R3” value is listed as -13.3% and the “% inhibition male (individual replicates) R4” value turned out to be 18.9%. Besides, the HitlevelM in assay [1] (setting [4]) came out at 0. Further, in assay [2] (setting [3]), the “Average inhibition female (%)” value stood at 24.8%, the “% inhibition female (individual replicates) R1” value is recorded as 22.3%, the “% inhibition female (individual replicates) R3” value came out at 3.0% and the “% inhibition female (individual replicates) R4” value was found to be 28.3%. This compound came in with a HitlevelF in assay [2] (setting [5]) of 0.

On to `O=C(O)C(F)(F)F.c1ccc(CN2CCC(NCc3ccc(-c4cccc(CNC5CCCC5)c4)cc3)CC2)cc1` [TCMDC-140491], for which, in assay [1] (setting [3]), the “Average inhibition male (%)” value is 4.9%, the “% inhibition male (individual replicates) R1” value is given as 9.8% and the “% inhibition male (individual replicates) R4” value is recorded as -11.4%. This compound registered a HitlevelM in assay [1] (setting [6]) of 0. Moreover, the Activity in assay [1] (setting [7]) came out at 0. Further, in assay [2] (setting [3]), the “Average inhibition female (%)” value is 15.2%, the “% inhibition female (individual replicates) R1” value was 11.0%, the “% inhibition female (individual replicates) R3” value turned out to be 20.4% and the “% inhibition female (individual replicates) R4” value worked out at 13.9%. Further, in assay [2] (setting [8]), the HitlevelF came out at 0.
